According to patent publication US20260070885A1, “TRKA (G667C) AND FLT3 TARGET INHIBITOR AND COMBINATION OF SAME WITH CHIDAMIDE” (SHENZHEN CHIPSCREEN BIOSCIENCES CO., LTD., priority 2022, published 2026):

Tests used:
[1] = target: TRKA (G667C) (Homo sapiens (Human), UniProt P04629, G667C); assay: HTRF kinase inhibition assay, TRKA (G667C); format: biochemical; conditions: ATP 0.5 μM
Description: (§1) The inhibition of the kinases TRKA (G667C), FLT3, and FLT3 (D835Y) by the compound N-[4-(6-fluoro-1H-2-benzimidazolyl)benzyl]-(E)-3-(pyridin-3-yl)acrylamide of the present disclosure (hereinafter referred to as compound A) was assessed using a homogeneous time-resolved fluorescence (HTRF) method based on biochemical levels.
(§2) HTRF is a technology used for detecting a test substance in a pure liquid phase system. Based on two major technologies: fluorescence resonance energy transfer (FRET) and time-resolved fluorescence (TRF), the generated fluorescence intensity was measured using a microplate reader, and the ratio 665 nm/620 nm reflected the extent to which compound A inhibited the activity of the kinases TRKA (G667C), FLT3, and FLT3 (D835Y).
(§3) a) Preparation of compound A or chidamide: The starting stock solution concentration of compound A or chidamide was 20 mM. The stock solution was serially diluted with the solvent 100% DMSO to 0.2 mM, which was 200 times the assay starting concentration.
(§4) b) A kinase reaction buffer Assay Buffer was prepared using the following formula: […]
(§5) 4) After the 384-well plate was centrifuged at 1000 rpm for 30 s and shaken for thorough mixing, the fluorescence intensities at 665 nm and 620 nm were measured using EnVision, and the TR-FRET ratio (665 nm/620 nm) was calculated. […]

[2] = target: FLT3 (Homo sapiens (Human), UniProt P36888); assay: HTRF kinase inhibition assay, FLT3; format: biochemical; conditions: ATP 2 μM
Description: as §1, §2, §3, §4, §5

[3] = target: FLT3 (D835Y) (Homo sapiens (Human), UniProt P36888, D835Y); assay: HTRF kinase inhibition assay, FLT3 (D835Y); format: biochemical; conditions: ATP 0.5 μM
Description: as §1, §2, §3, §4, §5

[4] = tested on: SHP77 cells; assay: Viability of SHP77 cells (MTS assay); format: cell-based; conditions: 72 h
Description: The SHP77 cell line was purchased from the American Type Culture Collection (ATCC) and cultured in an RPMI-1640 culture medium (Hyclone) containing 1% dual antibiotics (penicillin-streptomycin, Hyclone) and 10% fetal bovine serum (Gibco).
Compound A (N-[4-(6-Fluoro-1H-2-benzimidazolyl)benzyl]-(E)-3-(pyridin-3-yl)acrylamide) and chidamide were both from Shenzhen Chipscreen Biosciences Co., Ltd. The compound and chidamide were dissolved in dimethyl sulfoxide (DMSO, Shanghai Sangon, DN3039A) to prepare 20 mM working mother liquors, and the mother liquors were stored in a freezer at −20° C. before use. When in use, the mother liquors were diluted to prepare working solutions with corresponding final concentrations according to the needs of each experiment.
MTS solution: 42 mg of MTS Reagent Powder was placed in a light shielding container, and 21 mL of PBS was added. The mixture was gently stirred on a magnetic stirrer for 15 min until MTS was completely dissolved. The pH of the solution was measured. If the pH was higher than 6.5, the pH of the solution was adjusted to 6.5 with 1 M HCl. The solution was sterilized by filtration through a 0.2 μm filter and stored at −20° C. in a dark place.
PMS solution: […] of PMS was added to 21.7 mL of PBS to prepare a 150 μM stock solution, and the stock solution was sterilized by filtration, aliquoted, and stored at −20° C. in a dark place.
2.2. […]
2.4. […] After the plate was incubated for about 1 h, the absorbance at 490 nm in each well was measured using a microplate reader.
The reading of the BLANK well was OD490-BLANK (background value). The background value was subtracted from the readings of the wells to obtain the absorbance values of the administration wells, OD490-T, and the absorbance values of the control wells in which the drug concentration was 0, OD490-T0. With the cell viability of the control wells defined as 100%, the relative cell survival rate in each administration well was calculated using the formula: relative cell survival rate (%)=(OD490-T/OD490-T0)×100%.

Sequence of TRKA (G667C) (P04629 33-796 G667C): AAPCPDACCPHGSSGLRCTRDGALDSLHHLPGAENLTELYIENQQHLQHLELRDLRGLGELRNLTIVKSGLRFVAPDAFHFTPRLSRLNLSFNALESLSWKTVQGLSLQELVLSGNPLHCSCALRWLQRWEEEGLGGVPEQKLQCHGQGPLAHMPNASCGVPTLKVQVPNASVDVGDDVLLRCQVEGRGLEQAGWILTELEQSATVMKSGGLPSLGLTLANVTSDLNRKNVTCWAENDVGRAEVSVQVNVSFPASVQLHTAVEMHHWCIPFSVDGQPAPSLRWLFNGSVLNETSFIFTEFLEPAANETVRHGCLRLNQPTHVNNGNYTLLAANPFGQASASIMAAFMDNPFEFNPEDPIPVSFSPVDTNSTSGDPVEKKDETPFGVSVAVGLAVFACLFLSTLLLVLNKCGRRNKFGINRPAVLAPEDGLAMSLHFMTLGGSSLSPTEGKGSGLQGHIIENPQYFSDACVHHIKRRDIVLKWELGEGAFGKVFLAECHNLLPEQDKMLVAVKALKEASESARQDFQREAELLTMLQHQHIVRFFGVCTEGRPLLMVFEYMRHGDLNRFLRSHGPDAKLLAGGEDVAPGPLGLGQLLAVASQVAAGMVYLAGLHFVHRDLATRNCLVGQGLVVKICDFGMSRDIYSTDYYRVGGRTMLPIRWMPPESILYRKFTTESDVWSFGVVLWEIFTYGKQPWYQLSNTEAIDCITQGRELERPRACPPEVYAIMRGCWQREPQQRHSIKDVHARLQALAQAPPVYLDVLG

Row | IC50 [1] [nM] | IC50 [2] [nM] | IC50 [3] [nM] | Structure (SMILES) | relative cell survival rate ([4]; compound A alone 0.625 μM) [%] | relative cell survival rate ([4]; compound A alone 1.25 μM) [%] | relative cell survival rate ([4]; chidamide alone 0.5 μM) [%]
1 | 40.7 | 143 | 104 | O=C(/C=C/c1cccnc1)NCc1ccc(-c2nc3ccc(F)cc3[nH]2)cc1 [Compound A, N-[4-(6-fluoro-1H-2-benzimidazolyl)benzyl]-(E)-3-(pyridin-3-yl)acrylamide] | 77.43±1.18 | 44.09±6.59 | 
2 | > 1000 | > 1000 | > 1000 | Nc1cc(F)ccc1NC(=O)c1ccc(CNC(=O)/C=C/c2cccnc2)cc1 [Chidamide, N-(2-amino-4-fluorophenyl)-4-[N-[(E)-3-(pyridin-3-yl)acryloyl]aminomethyl]benzamide] |  |  | 95.45±0.81
